Reference: PMC6677754, “In silico design and optimization of selective membranolytic anticancer peptides” (Scientific Reports, 2019)
Peptide text beside a SMILES is read from it.

Columns and labels:
Test in all cases: NCI-60 screening
Format in all cases: cell-based, human
UO-31 = UO-31 (Renal); log GI50; 48 h, sulforhodamine B, 10^-4 to 10^-8 M
Description: (§1) NCI-60 screening procedure
(§2) The NCI-60 screening procedure was performed by the Developmental Therapeutics Program of the National Cancer Institute. The procedure was performed as previously described24 in 96-well microtiter plates. Each peptide was tested in a 5-concentration assay, starting at 10^-4 M and diluting 10-fold to the lowest 10^-8 M concentration. The peptides were incubated for 48 h and the cell concentration was assayed by using the sulforhodamine B assay25 and optical density measurements. The growth inhibition (GI50) value24, measures the growth inhibitory power of the drug agent. The GI50 value is the concentration of the test drug for which the condition in Eq. S1 is met, where T is the optical density of the test well after a 48-h exposure to the peptide, T0 the optical density before applying the peptide drug and C the control optical density of a well where no peptide was applied.

SF-539 = SF-539 (CNS); log GI50; 48 h, sulforhodamine B, 10^-4 to 10^-8 M
Description: as §1, §2

OVCAR-3 = OVCAR-3 (Ovarian); log GI50; 48 h, sulforhodamine B, 10^-4 to 10^-8 M
Description: as §1, §2

NCI-H460 = NCI-H460 (Lung); log GI50; 48 h, sulforhodamine B, 10^-4 to 10^-8 M
Description: as §1, §2

HOP-92 = HOP-92 (Lung); log GI50; 48 h, sulforhodamine B, 10^-4 to 10^-8 M
Description: as §1, §2

NCI/ADR-RES = NCI/ADR-RES (Ovarian); log GI50; 48 h, sulforhodamine B, 10^-4 to 10^-8 M
Description: as §1, §2

SF-295 = SF-295 (CNS); log GI50; 48 h, sulforhodamine B, 10^-4 to 10^-8 M
Description: as §1, §2

UACC-62 = UACC-62 (Melanoma); log GI50; 48 h, sulforhodamine B, 10^-4 to 10^-8 M
Description: as §1, §2

OVCAR-5 = OVCAR-5 (Ovarian); log GI50; 48 h, sulforhodamine B, 10^-4 to 10^-8 M
Description: as §1, §2

SR = SR (Leukemia); log GI50; 48 h, sulforhodamine B, 10^-4 to 10^-8 M
Description: as §1, §2

SK-MEL-2 = SK-MEL-2 (Melanoma); log GI50; 48 h, sulforhodamine B, 10^-4 to 10^-8 M
Description: as §1, §2

MDA-MB-435 = MDA-MB-435 (Melanoma); log GI50; 48 h, sulforhodamine B, 10^-4 to 10^-8 M
Description: as §1, §2

K-562 = K-562 (Leukemia); log GI50; 48 h, sulforhodamine B, 10^-4 to 10^-8 M
Description: as §1, §2

NCI-H226 = NCI-H226 (Lung); log GI50; 48 h, sulforhodamine B, 10^-4 to 10^-8 M
Description: as §1, §2

CAKI-1 = CAKI-1 (Renal); log GI50; 48 h, sulforhodamine B, 10^-4 to 10^-8 M
Description: as §1, §2

KM12 = KM12 (Colon); log GI50; 48 h, sulforhodamine B, 10^-4 to 10^-8 M
Description: as §1, §2

RXF-393 = RXF-393 (Renal); log GI50; 48 h, sulforhodamine B, 10^-4 to 10^-8 M
Description: as §1, §2

BT-549 = BT-549 (Breast); log GI50; 48 h, sulforhodamine B, 10^-4 to 10^-8 M
Description: as §1, §2

NCI-H23 = NCI-H23 (Lung); log GI50; 48 h, sulforhodamine B, 10^-4 to 10^-8 M
Description: as §1, §2

HCT-116 = HCT-116 (Colon); log GI50; 48 h, sulforhodamine B, 10^-4 to 10^-8 M
Description: as §1, §2

HCT-15 = HCT-15 (Colon); log GI50; 48 h, sulforhodamine B, 10^-4 to 10^-8 M
Description: as §1, §2

SN12C = SN12C (Renal); log GI50; 48 h, sulforhodamine B, 10^-4 to 10^-8 M
Description: as §1, §2

TK-10 = TK-10 (Renal); log GI50; 48 h, sulforhodamine B, 10^-4 to 10^-8 M
Description: as §1, §2

IGVROV1 = IGVROV1 (Ovarian); log GI50; 48 h, sulforhodamine B, 10^-4 to 10^-8 M
Description: as §1, §2

PC-3 = PC-3 (Prostate); log GI50; 48 h, sulforhodamine B, 10^-4 to 10^-8 M
Description: as §1, §2

UACC-257 = UACC-257 (Melanoma); log GI50; 48 h, sulforhodamine B, 10^-4 to 10^-8 M
Description: as §1, §2

HL-60 = HL-60 (Leukemia); log GI50; 48 h, sulforhodamine B, 10^-4 to 10^-8 M
Description: as §1, §2

Which “Log GI (M)” value (UO-31) does the source give for `CC[C@H](C)[C@H](NC(=O)[C@H](CCCCN)NC(=O)[C@H](CCCCN)NC(=O)[C@@H](NC(=O)[C@@H](NC(=O)[C@@H](N)Cc1c[nH]cn1)[C@@H](C)CC)[C@@H](C)CC)C(=O)N[C@@H](CCCNC(=N)N)C(=O)N[C@H](C(=O)N[C@@H](Cc1c[nH]c2ccccc12)C(=O)N[C@@H](Cc1ccc(O)cc1)C(=O)N[C@@H](CCCNC(=N)N)C(=O)N[C@@H](CCCCN)C(=O)N[C@@H](C)C(=O)N[C@@H](Cc1c[nH]c2ccccc12)C(=O)N[C@@H](Cc1c[nH]cn1)C(=O)N[C@H](C(=O)N[C@@H](CC(C)C)C(=O)NCC(=O)N[C@@H](CCCCN)C(=O)N[C@H](C(N)=O)C(C)C)C(C)C)[C@@H](C)O` [Off2] (H-HIIKKIRTWYRKAWHVLGKV-NH2) here?
Its value is -4.73 M.

What about the “Log GI (M)” value (SF-539) of the same molecule?
Its value is -5.67 M.

What about the “Log GI (M)” value (OVCAR-3) of the same molecule?
Its value is -4.98 M.

And the “Log GI (M)” value (NCI-H460)?
The value was -5.48 M.

What about the “Log GI (M)” value (HOP-92) of the same molecule?
The value was -5.68 M.

What about the “Log GI (M)” value (NCI/ADR-RES) of the same molecule?
Its value is -5.23 M.

And the “Log GI (M)” value (SF-295)?
The value was -5.32 M.

What about the “Log GI (M)” value (UACC-62) of the same molecule?
The value was -5.69 M.

And the “Log GI (M)” value (OVCAR-5)?
The value was -5.21 M.

What about the “Log GI (M)” value (SR) of the same molecule?
Its value is -5.15 M.

What about the “Log GI (M)” value (SK-MEL-2) of the same molecule?
Its value is -5.28 M.

What about the “Log GI (M)” value (MDA-MB-435) of the same molecule?
Its value is -5.29 M.

And the “Log GI (M)” value (K-562)?
The value was -5.18 M.

What about the “Log GI (M)” value (NCI-H226) of the same molecule?
Its value is -5.38 M.

And the “Log GI (M)” value (CAKI-1)?
Its value is -5.48 M.

And the “Log GI (M)” value (KM12)?
The value was -5.60 M.

And the “Log GI (M)” value (RXF-393)?
The value was -5.37 M.

And the “Log GI (M)” value (BT-549)?
The value was -4.89 M.

And the “Log GI (M)” value (NCI-H23)?
The value was -5.31 M.

What about the “Log GI (M)” value (HCT-116) of the same molecule?
The value was -4.76 M.

What about the “Log GI (M)” value (HCT-15) of the same molecule?
The value was -5.37 M.

And the “Log GI (M)” value (SN12C)?
The value was -5.53 M.

And the “Log GI (M)” value (TK-10)?
The value was -5.49 M.

What about the “Log GI (M)” value (IGVROV1) of the same molecule?
Its value is -5.36 M.

And the “Log GI (M)” value (PC-3)?
The value was -5.55 M.

What about the “Log GI (M)” value (UACC-257) of the same molecule?
The value was -5.07 M.

And the “Log GI (M)” value (HL-60)?
Its value is -5.37 M.

For `CC[C@H](C)[C@H](NC(=O)[C@H](CCCNC(=N)N)NC(=O)[C@H](Cc1c[nH]c2ccccc12)NC(=O)[C@@H](NC(=O)[C@H](CCCCN)NC(=O)[C@H](CCCCN)NC(=O)[C@@H](NC(=O)[C@@H](NC(=O)[C@@H](NC(=O)[C@H](CCCCN)NC(=O)[C@H](Cc1ccccc1)NC(=O)[C@H](CCCCN)NC(=O)[C@H](CCCCN)NC(=O)[C@H](Cc1ccccc1)NC(=O)[C@@H](NC(=O)[C@@H](N)CCCCN)[C@@H](C)CC)[C@@H](C)O)[C@@H](C)CC)[C@@H](C)CC)C(C)C)C(=O)N[C@@H](Cc1ccccc1)C(=O)NCC(=O)N[C@@H](CCCNC(=N)N)C(=O)N[C@@H](Cc1ccccc1)C(N)=O` [AmphiArc2] (H-KIFKKFKTIIKKVWRIFGRF-NH2), which “Log GI (M)” value (UO-31) is on record?
Its value is -5.74 M.

What about the “Log GI (M)” value (SF-539) of the same molecule?
Its value is -5.72 M.

What about the “Log GI (M)” value (OVCAR-3) of the same molecule?
Its value is -5.67 M.

And the “Log GI (M)” value (NCI-H460)?
Its value is -5.62 M.

What about the “Log GI (M)” value (HOP-92) of the same molecule?
The value was -5.70 M.

What about the “Log GI (M)” value (NCI/ADR-RES) of the same molecule?
The value was -5.53 M.

And the “Log GI (M)” value (SF-295)?
The value was -5.69 M.

What about the “Log GI (M)” value (UACC-62) of the same molecule?
Its value is -5.69 M.

What about the “Log GI (M)” value (OVCAR-5) of the same molecule?
The value was -5.68 M.

What about the “Log GI (M)” value (SR) of the same molecule?
Its value is -5.57 M.

And the “Log GI (M)” value (SK-MEL-2)?
Its value is -5.58 M.

And the “Log GI (M)” value (MDA-MB-435)?
Its value is -5.63 M.

What about the “Log GI (M)” value (K-562) of the same molecule?
The value was -5.55 M.

And the “Log GI (M)” value (NCI-H226)?
Its value is -5.59 M.

What about the “Log GI (M)” value (CAKI-1) of the same molecule?
The value was -5.71 M.

What about the “Log GI (M)” value (KM12) of the same molecule?
The value was -5.63 M.

What about the “Log GI (M)” value (RXF-393) of the same molecule?
The value was -5.68 M.

And the “Log GI (M)” value (BT-549)?
The value was -5.45 M.

What about the “Log GI (M)” value (NCI-H23) of the same molecule?
The value was -5.61 M.

And the “Log GI (M)” value (HCT-116)?
Its value is -5.49 M.

And the “Log GI (M)” value (HCT-15)?
The value was -5.58 M.

What about the “Log GI (M)” value (SN12C) of the same molecule?
The value was -5.69 M.

And the “Log GI (M)” value (TK-10)?
The value was -5.65 M.

What about the “Log GI (M)” value (IGVROV1) of the same molecule?
The value was -5.68 M.

And the “Log GI (M)” value (PC-3)?
The value was -5.66 M.

What about the “Log GI (M)” value (UACC-257) of the same molecule?
Its value is -5.54 M.

What about the “Log GI (M)” value (HL-60) of the same molecule?
Its value is -5.28 M.
